Assay results from ChEMBL document CHEMBL1201862, “PubChem BioAssay data set” (2004).
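Cultured in 96-well plates, cells were exposed to test compound for 48 hours across five concentrations. GI50 is the concentration that inhibits growth by half.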 Activity calls are given as the source filed them. No stated cut-off is given here; in the data, active = GI50 up to about 1.1 µM and inactive = higher.

Tests used:
Experiment in all cases: NCI tumour cell line growth inhibition, 48 h
SK-MEL-28 = test system: SK-MEL-28
HCC 2998 = test system: HCC 2998
SK-MEL-2 = test system: SK-MEL-2
SN12C = test system: SN12C
U-251 = test system: U-251
NCI-H460 = test system: NCI-H460
A549 = test system: A549
COLO 205 = test system: COLO 205
SK-MEL-5 = test system: SK-MEL-5
KM12 = test system: KM12
EKVX = test system: EKVX
UACC-62 = test system: UACC-62
Malme-3M = test system: Malme-3M
SF-268 = test system: SF-268
HL-60 = test system: HL-60

Measured: GI50

CCOC(=O)C(Cc1cn(C(C)=O)c2ccccc12)P(=O)(OCC)OCC (stereo not given)
inactive: SK-MEL-28 > 100 µM | HCC 2998 > 100 µM | SK-MEL-2 > 100 µM | SN12C > 100 µM | U-251 > 100 µM | NCI-H460 55.1 µM | A549 > 100 µM | COLO 205 > 100 µM | SK-MEL-5 > 100 µM

Clc1ccc(/N=c2\oc3ccccc3cc2-c2nc3ccccc3[nH]2)c(Cl)c1
inactive: KM12 > 100 µM | EKVX 51.2 µM | UACC-62 24.6 µM | Malme-3M > 100 µM | SF-268 24.2 µM | HL-60 > 100 µM
